Residue numbers refer to the chain shown, from its start.
What was measured:
OX1R [1] = biological target: T1, OX1R (Rattus norvegicus, UniProt P56718); experiment: Inhibition of orexin-peptide-A-induced calcium mobilization in CHO cells, rat OX1R; assay type: cell-based
T1 construct: expressed in transfected cells; host or cells: CHO-K1
T1 sequence (P56718 1-416): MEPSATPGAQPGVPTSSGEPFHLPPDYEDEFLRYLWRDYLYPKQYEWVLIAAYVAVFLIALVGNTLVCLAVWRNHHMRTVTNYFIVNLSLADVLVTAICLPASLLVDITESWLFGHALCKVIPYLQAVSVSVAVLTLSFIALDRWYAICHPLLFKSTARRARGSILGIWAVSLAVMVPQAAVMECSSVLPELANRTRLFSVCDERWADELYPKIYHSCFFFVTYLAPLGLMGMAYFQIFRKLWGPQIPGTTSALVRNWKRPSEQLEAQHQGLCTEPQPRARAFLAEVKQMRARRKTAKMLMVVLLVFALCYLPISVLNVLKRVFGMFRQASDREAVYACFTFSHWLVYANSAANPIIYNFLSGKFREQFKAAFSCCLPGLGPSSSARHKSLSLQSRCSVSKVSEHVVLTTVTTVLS
Procedure: (§1) MK-1064 was evaluated for its ability to inhibit orexin-peptide-A-induced calcium mobilization in CHO cell lines separately expressing OX1R and OX2R from mice, rats, rabbits, dogs, rhesus monkeys and humans.
(§2) Binding and functional blockade of OX1R and OX2R with MK-1064 relative to other 2-SORAs and the DORA, MK-6096, were assessed using membranes from Chinese hamster ovary (CHO)-K1 cells (American Type Tissue Collection, Manassas, VA) transfected to express human, mouse, rat, rabbit, dog, or rhesus monkey OX1R or OX2R receptors, as described previously. The kinetics of binding to human OX2R was assessed by radioligand displacement on CHO-K1 cells expressing the receptor. […] The ON rate analysis was performed by presoaking GF/B filters in 0.3% polyethyleneimine (Sigma) using a Skatron 12-well cell harvester and cold buffer at the indicated time points after addition. For OFF rate determination, binding reactions were allowed to proceed to equilibrium and terminated with 1000x [Kd] of unlabeled antagonist and filtered as above at pre-determined time points. Ultima Gold^TM (PerkinElmer 6013327) scintillation cocktail was added to each filter disc and counted on a PerkinElmer TriCarb 2910 scintillation counter. Data were analyzed using GraphPad® Prism v 6.04 (San Diego, CA, USA). The KON rate was determined according to the equation, KON = (KOBS − KOFF)/[ligand].

OX1R [2] = biological target: T2, OX1R (Canis lupus familiaris, UniProt A0A8I3RSX8); experiment: Inhibition of orexin-peptide-A-induced calcium mobilization in CHO cells, dog OX1R; assay type: cell-based
T2 sequence (A0A8I3RSX8 1-427): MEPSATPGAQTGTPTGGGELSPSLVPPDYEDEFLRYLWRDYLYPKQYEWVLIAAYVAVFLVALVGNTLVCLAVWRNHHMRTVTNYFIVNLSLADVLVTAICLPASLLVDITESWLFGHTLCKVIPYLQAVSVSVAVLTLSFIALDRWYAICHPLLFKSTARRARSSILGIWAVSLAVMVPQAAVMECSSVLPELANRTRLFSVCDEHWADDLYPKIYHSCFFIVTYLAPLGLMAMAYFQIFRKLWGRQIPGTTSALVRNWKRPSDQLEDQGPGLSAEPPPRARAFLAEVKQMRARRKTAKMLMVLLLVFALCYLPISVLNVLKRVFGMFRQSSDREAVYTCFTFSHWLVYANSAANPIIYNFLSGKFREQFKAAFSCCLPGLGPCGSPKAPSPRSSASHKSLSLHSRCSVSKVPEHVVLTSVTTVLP
Procedure: as §1, §2

OX2R [3] = biological target: T3, OX2R (Oryctolagus cuniculus, UniProt G1STQ8); experiment: Inhibition of orexin-peptide-A-induced calcium mobilization in CHO cells, rabbit OX2R; assay type: cell-based; conditions: for fold OX2R selectivity (Kb): OX1R Kb / OX2R Kb
T3 sequence (G1STQ8 1-444): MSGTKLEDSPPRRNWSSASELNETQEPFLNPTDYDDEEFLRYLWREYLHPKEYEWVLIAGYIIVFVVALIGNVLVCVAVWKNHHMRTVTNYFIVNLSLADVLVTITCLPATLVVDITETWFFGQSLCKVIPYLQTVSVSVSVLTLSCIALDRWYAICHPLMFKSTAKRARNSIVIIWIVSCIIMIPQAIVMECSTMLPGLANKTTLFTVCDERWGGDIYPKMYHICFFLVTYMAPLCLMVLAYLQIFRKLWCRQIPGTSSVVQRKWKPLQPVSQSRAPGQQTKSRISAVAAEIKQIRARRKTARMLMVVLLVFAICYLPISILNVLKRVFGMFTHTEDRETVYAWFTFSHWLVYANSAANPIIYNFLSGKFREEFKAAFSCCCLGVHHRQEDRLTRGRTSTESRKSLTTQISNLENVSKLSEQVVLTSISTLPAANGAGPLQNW
Procedure: as §1, §2

OX2R [4] = biological target: T3, OX2R; experiment: Radio-ligand displacement binding, CHO-K1 membranes, rabbit OX2R; conditions: for fold OX2R selectivity (Ki): OX1R Ki / OX2R Ki; for Ki: read-out: OX2R affinity (Ki)
Procedure: as §1, §2

OX2R [5] = biological target: T4, OX2R (Canis lupus familiaris, UniProt Q9TUP7); experiment: Radio-ligand displacement binding, CHO-K1 membranes, dog OX2R; conditions: for fold OX2R selectivity (Ki): OX1R Ki / OX2R Ki; for Ki: read-out: OX2R affinity (Ki)
T4 construct: expressed in transfected cells; host or cells: CHO-K1
T4 sequence (Q9TUP7 1-444): T3 sequence (G1STQ8 1-444) with R12C, S19P, I70V, D217E, V272A, S275P, A277G, L414F, E415D
Procedure: as §1, §2

OX2R [6] = biological target: T5, OX2R (Homo sapiens, UniProt O43614); experiment: Radio-ligand displacement binding, CHO-K1 membranes, human OX2R; set-up: expressed in transfected cells; host or cells: CHO-K1; conditions: for fold OX2R selectivity (Ki): OX1R Ki / OX2R Ki; for Ki: read-out: OX2R affinity (Ki)
T5 sequence (O43614 1-444): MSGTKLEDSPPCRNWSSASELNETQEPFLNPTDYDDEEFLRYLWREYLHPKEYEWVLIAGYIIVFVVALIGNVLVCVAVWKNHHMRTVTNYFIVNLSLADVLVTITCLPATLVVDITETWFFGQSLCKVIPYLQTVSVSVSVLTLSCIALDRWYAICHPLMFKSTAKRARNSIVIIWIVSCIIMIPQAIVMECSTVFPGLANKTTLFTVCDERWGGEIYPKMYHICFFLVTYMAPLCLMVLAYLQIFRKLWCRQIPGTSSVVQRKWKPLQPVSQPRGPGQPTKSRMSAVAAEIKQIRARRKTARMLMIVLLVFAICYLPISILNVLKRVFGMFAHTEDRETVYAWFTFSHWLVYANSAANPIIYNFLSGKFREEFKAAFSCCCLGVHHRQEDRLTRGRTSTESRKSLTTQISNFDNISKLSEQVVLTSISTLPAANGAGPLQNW
Procedure: as §1, §2

Row | Structure (SMILES) | Kb (OX1R [1]) [nM] | Kb (OX1R [2]) [nM] | Kb (OX2R [3]) [nM] | fold OX2R selectivity (Kb) (OX2R [3]) | fold OX2R selectivity (Ki) (OX2R [4]) | Ki (OX2R [4]) [nM] | fold OX2R selectivity (Ki) (OX2R [5]) | Ki (OX2R [5]) [nM] | fold OX2R selectivity (Ki) (OX2R [6]) | Ki (OX2R [6]) [nM]
1 | COc1ccc(CNC(=O)c2cc(-c3cncc(Cl)c3)cnc2-c2ccccn2)nc1OC [MK-1064, 5″-chloro-N-[(5,6-dimethoxypyridin-2-yl)methyl]-2,2′:5′, 3″-terpyridine-3′-carbo xamide] | 7970 | 3700 | 10 | [737] fold | [4780] fold | 0.51 | [1667] fold | 0.78 | [2885] fold | 0.52
2 | COc1ccc(CNC(=O)c2cc(-c3cncc(C)c3)ncc2-c2nccs2)nc1OC [MK-3697] | 36400 | > 10000 | 27 |  |  | 1.01 |  | 1.1 |  | 0.97
3 | Cc1ccc(-c2ncccn2)c(C(=O)N2C[C@H](COc3ccc(F)cn3)CC[C@H]2C)c1 [MK-6096] | 10 | 10 | 16 | [0.8] fold | [9.3] fold | 0.28 | [7.5] fold | 0.36 | [8.1] fold | 0.31
4 | COc1ccc(CNC(=O)c2cc(-c3cc(Cl)cc(Cl)c3)cnc2-c2cccnc2)cc1OC [2-SORA-18] | 1050 | 87 | 30 | [17] fold | [2410] fold | 0.1 | [782] fold | 0.11 | [1000] fold | 0.1
5 | COc1ccc(CNC(=O)c2cc(-c3cncc(C)c3)ncc2-c2ccccc2)nc1OC [2-SORA-7] | 58300 | > 10000 | 22 | [764] fold | [9986] fold | 0.44 | [2857] fold | 0.63 | [5957] fold | 0.47
